The values below come from patent US8394834B2, “Pyrrolidines as NK3 receptor antagonists” (Hoffman-La Roche Inc., priority 2009, dated 2013).

pKi: −log10 of the molar value.

Experiment [1] has as its target T1, recombinant human NK3 receptor (Homo sapiens, UniProt P29371).
T1 construct: expressed in transfected cells; host or cells: HEK293 cells (transient expression), membranes
T1 sequence (P29371 1-465): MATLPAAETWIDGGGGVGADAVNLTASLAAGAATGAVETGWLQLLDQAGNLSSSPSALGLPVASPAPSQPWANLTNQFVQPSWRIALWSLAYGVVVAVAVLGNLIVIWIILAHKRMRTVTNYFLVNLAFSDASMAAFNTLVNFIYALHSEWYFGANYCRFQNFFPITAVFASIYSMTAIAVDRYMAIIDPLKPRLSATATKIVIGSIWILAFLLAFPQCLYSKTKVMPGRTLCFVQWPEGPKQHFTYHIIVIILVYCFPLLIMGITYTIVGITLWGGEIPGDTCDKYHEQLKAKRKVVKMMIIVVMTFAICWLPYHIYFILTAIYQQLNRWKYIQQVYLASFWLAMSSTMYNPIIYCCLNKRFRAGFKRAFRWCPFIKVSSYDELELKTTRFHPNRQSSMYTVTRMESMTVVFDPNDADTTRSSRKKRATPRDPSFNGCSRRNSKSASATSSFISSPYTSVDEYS
The experiment in a line: [3H]SR142801 competition binding assay. The following applies: hNK3 receptor, membranes from HEK293 cells transiently expressing the receptor, [3H]SR142801 radioligand. As for the experimental part:
[^3H]SR142801 Competition Binding Assay
hNK3 receptor binding experiment were performed using [^3H]SR142801 (Catalog No. TRK1035, specific activity: 74.0 Ci/mmol, Amersham, GE Healthcare UK limited, Buckinghamshire, UK) and membrane isolated from HEK293 cells transiently expressing recombinant human NK3 receptor. After thawing, the membrane homogenates were centrifuged at 48,000×g for 10 min at 4° C., the pellets were resuspended in the 50 mM Tris-HCl, 4 mM MnCl2, 1 μM phosphoramidon, 0.1% BSA binding buffer at pH 7.4 to a final assay concentration of 5 μg protein/well. For inhibition experiments, membranes were incubated with [^3H]SR142801 at a concentration equal to KD value of radioligand and 10 concentrations of the inhibitory compound (0.0003-10 μM) (in a total reaction volume of 500 μl) for 75 min at room temperature (RT). At the end of the incubation, membranes were filtered onto unitfilter (96-well white microplate with bonded GF/C filter preincubated 1 h in 0.3% PEI+0.3% BSA, Packard BioScience, Meriden, Conn.) with a Filtermate 196 harvester (Packard BioScience) and washed 4 times with ice-cold 50 mM Tris-HCl, pH 7.4 buffer. Nonspecific binding was measured in the presence of 10 μM SB222200 for both radioligands. The radioactivity on the filter was counted (5 min) on a Packard Top-count microplate scintillation counter with quenching correction after addition of 45 μl of microscint 40 (Can berra Packard S. A., Zürich, Switzerland) and shaking for 1 h. Inhibition curves were fitted according to the Hill equation: […]), where nH=slope factor using Excel-fit 4 software (Microsoft). IC50 values were derived from the inhibition curve and the affinity constant (Ki) values were calculated using the Cheng-Prussoff equation Ki=IC50/(1+[L]/KD) where [L] is the concentration of radioligand and KD is its dissociation constant at the receptor, derived from the saturation isotherm. All experiments were performed in duplicate and the mean±standard error (SEM) of the individual Ki values was calculated.

A further experiment relates to schizophrenia. To be noted: phase II trial, cited from earlier work.

Usually pKi stands for the negative decadic logarithm of the Ki, by convention in mol/L. With `C[C@H](Oc1ccc(C#N)cn1)[C@H]1CN(C(=O)C2CCN(c3ccc(C#N)cn3)CC2)C[C@@H]1c1ccc(F)c(F)c1` [Example 19, 4-[(3R,48)-3-[1-((S)-5-Cyano-pyridin-2-yloxy)-ethyl]-4-(3,4-difluoro-phenyl)-pyrrolidine-1-carbonyl]-3,4,5,6-tetrahydro-2H-[1,2′]bipyridinyl-5′-carbonitrile], the pKi in experiment [1] was 8.92.

For the compound `C[C@H](Oc1ccc(Cl)cn1)[C@H]1CN(C(=O)C2CCN(c3ccc(C#N)cn3)CC2)C[C@@H]1c1ccc(F)c(F)c1` [Example 20, 4-[(3R,4S)-3-[1-((S)-5-Chloro-pyridin-2-yloxy)-ethyl]-4-(3,4-difluoro-phenyl)-pyrrolidine-1-carbonyl]-3,4,5,6-tetrahydro-2H-[1,2′]bipyridinyl-5′-carbonitrile], the pKi in experiment [1] was 9.05.

`Cc1ccc(N2CCC(C(=O)N3C[C@H]([C@H](C)Oc4ccc(C#N)cn4)[C@@H](c4ccc(F)c(F)c4)C3)CC2)nn1` [Example 21, 6-((S)-1-{(3R,4S)-4-(3,4-Difluoro-phenyl)-1-[1-(6-methyl-pyridazin-3-yl)-piperidine-4-carbonyl]-pyrrolidin-3-yl}-ethoxy)-nicotinonitrile]: the pKi in experiment [1] was 8.55.

For `CC(=O)N(C)C1(c2ccccc2)CCN(CCC[C@]2(c3ccc(Cl)c(Cl)c3)CCCN(C(=O)c3ccccc3)C2)CC1` [SR 142,801, Osanetant], in the experiment on schizophrenia (altered behaviour, delusion, hallucinations, extreme emotions, excited motor activity, incoherent speech), the “activity on positive symptoms of schizophrenia” value is “active”. Further, in the experiment on schizophrenia (depression, anhedonia, social isolation or memory and attention deficits), the “activity in the treatment of negative symptoms” value was “inactive”.
